Laboratory results: PubChem BioAssay (NCI)
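Following 48 hours of exposure in 96-well plates, responses at five concentrations were used to interpolate endpoints linearly. TGI: total growth inhibition.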

What was measured:
Test in all cases: NCI anticancer screen, dose series, 48 h
[1] = system: OVCAR-5 ovarian
[2] = system: U251 CNS
[3] = system: HCT-15 colon
[4] = system: OVCAR-8 ovarian
[5] = system: XF 498 CNS
[6] = system: LXFL 529 NSCLC
[7] = system: SF-268 CNS
[8] = system: NCI-H522 lung
[9] = system: CAKI-1 renal
[10] = system: UACC-62 melanoma
[11] = system: DLD-1 colon
[12] = system: KM12 colon
[13] = system: HL-60(TB) leukemia
[14] = system: SNB-78 CNS
[15] = system: OVCAR-4 ovarian
[16] = system: SNB-19 CNS
[17] = system: HCC-2998 colon
[18] = system: SNB-75 CNS
[19] = system: COLO 205 colon
[20] = system: SN12C renal
[21] = system: A549 NSCLC
[22] = system: UACC-257 melanoma
[23] = system: HCT-116 colon
[24] = system: SK-MEL-2 melanoma
[25] = system: UO-31 renal
[26] = system: DMS 273 small cell lung
[27] = system: MALME-3M melanoma
[28] = system: M19-MEL melanoma
[29] = system: 786-0 renal
[30] = system: SW-620 colon
[31] = system: RXF-631 renal
[32] = system: MOLT-4 leukemia
[33] = system: RPMI-8226 leukemia
[34] = system: SF-539 CNS
[35] = system: NCI-H23 lung
[36] = system: K-562 leukemia
[37] = system: M14 melanoma
[38] = system: IGROV1 ovarian
[39] = system: LOX IMVI melanoma
[40] = system: NCI-H460 lung
[41] = system: KM20L2 colon
[42] = system: SR leukemia
[43] = system: SF-295 CNS
[44] = system: ACHN renal
[45] = system: SK-MEL-28 melanoma
[46] = system: NCI-H226 lung
[47] = system: HOP-92 NSCLC
[48] = system: TK-10 renal
[49] = system: HOP-62 NSCLC
[50] = system: SK-OV-3 ovarian
[51] = system: HT29 colon
[52] = system: OVCAR-3 ovarian
[53] = system: A498 renal
[54] = system: CCRF-CEM leukemia
[55] = system: SK-MEL-5 melanoma
[56] = system: RXF 393 renal
[57] = system: EKVX NSCLC
[58] = system: DMS 114 small cell lung
[59] = system: HOP-18 NSCLC

O=C(COc1ccccc1Cl)N1N=C(c2ccc(Cl)cc2)CC1(O)c1ccccc1 (configuration not stated)
TGI [1]: > 100 µM
TGI [2]: > 100 µM
TGI [3]: > 100 µM
TGI [4]: > 100 µM
TGI [5]: > 100 µM
TGI [6]: > 100 µM
TGI [7]: > 100 µM
TGI [8]: > 100 µM
TGI [9]: > 100 µM
TGI [10]: > 100 µM
TGI [11]: > 100 µM
TGI [12]: > 100 µM
TGI [13]: > 100 µM
TGI [14]: > 100 µM
TGI [15]: > 100 µM
TGI [16]: > 100 µM
TGI [17]: > 100 µM
TGI [18]: > 100 µM
TGI [19]: > 100 µM
TGI [20]: > 100 µM
TGI [21]: > 100 µM
TGI [22]: > 100 µM
TGI [23]: > 100 µM
TGI [24]: > 100 µM
TGI [25]: > 100 µM
TGI [26]: > 100 µM
TGI [27]: > 100 µM
TGI [28]: > 100 µM
TGI [29]: > 100 µM
TGI [30]: > 100 µM
TGI [31]: > 100 µM
TGI [32]: > 100 µM
TGI [33]: > 100 µM
TGI [34]: > 100 µM
TGI [35]: > 100 µM
TGI [36]: > 100 µM
TGI [37]: > 100 µM
TGI [38]: > 100 µM
TGI [39]: > 100 µM
TGI [40]: > 100 µM
TGI [41]: > 100 µM
TGI [42]: > 100 µM
TGI [43]: > 100 µM
TGI [44]: > 100 µM
TGI [45]: > 100 µM
TGI [46]: > 100 µM
TGI [47]: > 100 µM
TGI [48]: > 100 µM
TGI [49]: > 100 µM
TGI [50]: > 100 µM
TGI [51]: > 100 µM
TGI [52]: > 100 µM

CC(=O)OCc1c2ccccc2c(C)c2c1cc(F)c1ccccc12
TGI [1]: > 100 µM
TGI [2]: 58.8 µM
TGI [53]: > 100 µM
TGI [4]: 47.4 µM
TGI [5]: 45.2 µM
TGI [6]: > 100 µM
TGI [7]: 85.3 µM
TGI [8]: 25.6 µM
TGI [9]: 98 µM
TGI [10]: 43.6 µM
TGI [11]: 64.3 µM
TGI [12]: > 100 µM
TGI [13]: 67.8 µM
TGI [14]: 59.8 µM
TGI [54]: 40.5 µM
TGI [15]: 77.9 µM
TGI [16]: 82.4 µM
TGI [17]: 72.3 µM
TGI [18]: 58.4 µM
TGI [19]: 36.4 µM
TGI [20]: 33.8 µM
TGI [21]: > 100 µM
TGI [22]: > 100 µM
TGI [23]: > 100 µM
TGI [24]: 35.2 µM
TGI [25]: > 100 µM
TGI [55]: 69.6 µM
TGI [56]: 57.9 µM
TGI [26]: 26.4 µM
TGI [27]: > 100 µM
TGI [29]: 82.3 µM
TGI [30]: 67.3 µM
TGI [31]: 63 µM
TGI [32]: 32.6 µM
TGI [34]: 59.4 µM
TGI [35]: 68.4 µM
TGI [36]: 78.9 µM
TGI [57]: > 100 µM
TGI [37]: > 100 µM
TGI [58]: > 100 µM
TGI [38]: 75.2 µM
TGI [39]: 46.3 µM
TGI [41]: 87 µM
TGI [59]: > 100 µM
TGI [42]: > 100 µM
TGI [43]: > 100 µM
TGI [44]: 46.9 µM
TGI [45]: > 100 µM
TGI [46]: > 100 µM
TGI [47]: > 100 µM
TGI [48]: > 100 µM
TGI [49]: > 100 µM
TGI [50]: > 100 µM
TGI [51]: 42.4 µM
TGI [52]: 57.5 µM
